Like-named read-outs stand apart in the source and are kept apart here.
Tests used:
Candida albicans KMM 455 [1] = experiment: Biofilm formation assay (MTT); assay type: cell-based
Procedure: (§1) The Gram-positive bacterial Staphylococcus aureus ATCC 21027, Gram-negative bacterial Escherichia coli VKPM (B-7935), and yeast-like fungal Candida albicans KMM 455 strains were fermented on solid medium Mueller Hinton broth with agar (16.0 g/L) in a Petri dish at 37 °C for 24 h. The antimicrobial activity of the compound was tested at concentrations ranging from 100 µM and lower. The effect of the compound on bacterial growth was estimated as described by. Gentamicin and amphotericin B were used as positive controls against S. aureus, E. coli, and C. albicans, and a 1% dimethyl sulfoxide (DMSO) solution in PBS was used as a negative control. The optical density of the bacterial suspension after 18 h was measured at λ = 620 nm. The effect of the compound on biofilm formation for 18 h was tested using MTT reagent (Sigma-Aldrich, St. Louis, MO, USA) in accordance with. The optical density of the obtained solution was measured at λ = 570 nm. A Multiskan FS spectrophotometer (Thermo Scientific Inc., Beverly, MA, USA) was used for both assays. The results were calculated as percentages of the control data and presented as minimal concentrations reduced by 50% of growth or biofilm formation (MIC50).

[2] = test system: Escherichia coli VKPM (B-7935); experiment: Biofilm formation assay (MTT); assay type: cell-based
Procedure: as §1

[3] = test system: Staphylococcus aureus ATCC 21027; experiment: Biofilm formation assay (MTT); assay type: cell-based
Procedure: as §1

Candida albicans KMM 455 [4] = experiment: Antimicrobial assay, growth inhibition (optical density); assay type: cell-based
Procedure: as §1

[5] = test system: Escherichia coli VKPM (B-7935); experiment: as above; assay type: cell-based
Procedure: as §1

[6] = test system: Staphylococcus aureus ATCC 21027; experiment: as above; assay type: cell-based; settings: Staphylococcus aureus
Procedure: as §1

[7] = Cell viability assay (MTT); assay type: cell-based, rat; settings: rat, H9c2 cardiomyocytes, read-out: Cytotoxicity IC50
Source text: (§2) Rat cardiomyocyte H9c2 cells were kindly provided by Prof. Dr. Gunhild von Amsberg from the Martini-Klinik Prostate Cancer Center, University Hospital Hamburg-Eppendorf, Hamburg, Germany. The human HaCaT keratinocyte cell line was kindly provided by Prof. N. Fusenig (Cancer Research Centre, Heidelberg, Germany). Non-cancerous human breast epithelial MCF-10A cells were kindly provided by Dr. Irina Zhitnyak (N. N. Blokhin National Medical Research Center of Oncology, Moscow, Russia). Human breast cancer MCF-7 HTB-22 and MDA-MB-231 cells were obtained from the ATTC (Manassas, VA, USA).
(§3) H9c2 and HaCaT cells were cultured in DMEM with 10% fetal bovine serum and 1% penicillin/streptomycin (BioloT, St. Petersburg, Russia). MCF-7 and MDA-MB-231 cells were cultured in MEM (BioloT, St. Petersburg, Russia) with 10% fetal bovine serum (FBS) and 1% penicillin/streptomycin (BioloT, St. Petersburg, Russia). MCF 10A cells were cultured in DMEM F12 medium (BioloT, St. Petersburg, Russia) supplemented with 20% FBS, 20 ng/mL hrEGF (Sci-Store, Moscow, Russia), and 1% penicillin/streptomycin (BioloT, St. Petersburg, Russia). All cells were cultured at 37 °C in a humidified atmosphere containing 5% CO2.
(§4) H9c2 cells were seeded at a concentration of 3 × 10^3 cells/well. MCF-10A, MCF-7, and MDA-MB-231 cells were seeded at 5 × 10^3 cells/well, and HaCaT cells were seeded at 1 × 10^4 cells/well. The experiments were initiated after 24 h.
(§5) Compounds at concentrations up to 100 µM were added to the wells for 24h or 48 h, and the viability of the cells was measured using an MTT (3-(4,5-dimethylthiazol-2-yl)-2,5-diphenyltetrazolium bromide) assay, which was performed according to the manufacturer’s instructions (Sigma-Aldrich, Munich, Germany). […] DMSO was used as a control. The results are presented as percentages of the control data.

H9c2 cardiomyocytes = experiment: Cell viability assay (MTT); assay type: cell-based, rat
Source text: as §2, §3, §4, §5

[8] = Cell viability assay (MTT); assay type: cell-based, human; settings: human, read-out: Cytotoxicity IC50
Source text: as §2, §3, §4, §5

[9] = test system: MCF-10A breast epithelial cells; experiment: Cell viability assay (MTT); assay type: cell-based, human; settings: MCF10A
Source text: as §2, §3, §4, §5

HaCaT keratinocytes = experiment: Cell viability assay (MTT); assay type: cell-based, human
Source text: as §2, §3, §4, §5

[10] = test system: MDA-MB-231 breast cancer cells; experiment: Cell viability assay (MTT); assay type: cell-based, human
Source text: as §2, §3, §4, §5

[11] = test system: MCF-7 breast cancer cells; experiment: Cell viability assay (MTT); assay type: cell-based, human
Source text: as §2, §3, §4, §5

## COc1c(OC)c(-c2c[nH]c3ccccc23)c(OC)c(OC)c1-c1c[nH]c2ccccc12 [Compound 7, asterriquinol D dimethyl ether]
Candida albicans KMM 455 [1]; C. albicans, 18 h
  Biofilm formation, MIC50: >100 µM
Candida albicans KMM 455 [1]; at 100 µM
  effect on C. albicans biofilm formation: did not affect
[2]; E. coli, 18 h
  Biofilm formation, MIC50: >100 µM
[2]; at / up to 100 µM
  effect on E. coli biofilm formation: did not affect
[3]; S. aureus, 18 h
  Biofilm formation, MIC50: >100 µM
[3]; at / up to 100 µM
  effect on S. aureus biofilm formation: did not affect
Candida albicans KMM 455 [4]; Candida albicans, KMM455, 18 h, C. albicans, 18 h
  MIC50: > 100 µM
Candida albicans KMM 455 [4]; at / up to 100 µM
  effect on C. albicans growth: did not affect
[5]; Escherichia coli, 18 h, E. coli
  MIC50: > 100 µM
[5]; at / up to 100 µM
  effect on E. coli growth: did not affect
[6]; ATCC21027, 18 h, S. aureus, 18 h
  MIC50: > 100 µM
[6]; ATCC21027, at 100 µM, read-out: inhibition of S. aureus growth
  inhibition at 100 µM: 42.2 ± 2.07%
[7]; H9c2, 24 h
  IC50 at 24 h: > 100 µM
[7]; H9c2, 48 h
  IC50 at 48 h: 69.9 ± 2.3 µM
H9c2 cardiomyocytes; H9c2, 24 h, 1.0 µM
  cell viability: 101.5 ± 1.3 % of control
H9c2 cardiomyocytes; H9c2, 24 h, 10.0 µM
  cell viability: 76.9 ± 2.8 % of control
H9c2 cardiomyocytes; H9c2, 24 h, 100.0 µM
  cell viability: 59.0 ± 5.3 % of control
H9c2 cardiomyocytes; H9c2, 48 h, 1.0 µM
  cell viability: 102.8 ± 7.6 % of control
H9c2 cardiomyocytes; H9c2, 48 h, 10.0 µM
  cell viability: 76.3 ± 3.9 % of control
H9c2 cardiomyocytes; H9c2, 48 h, 100.0 µM
  cell viability: 32.8 ± 1.4 % of control
[8]; HaCaT keratinocytes, 24 h
  IC50 at 24 h: > 100 µM
[8]; HaCaT keratinocytes, 48 h
  IC50 at 48 h: 80.5 ± 1.8 µM
[8]; MCF-7 breast cancer cells, MCF-7, 24 h
  IC50 at 24 h: > 100 µM
[8]; MCF-7 breast cancer cells, MCF-7, 48 h
  IC50 at 48 h: 79.1 ± 2.4 µM
[8]; MCF-10A breast epithelial cells, MCF10A, 24 h
  IC50 at 24 h: > 100 µM
[8]; MCF-10A breast epithelial cells, MCF10A, 48 h
  IC50 at 48 h: > 100 µM
[8]; MDA-MB-231 breast cancer cells, MDA-MB-231, 24 h
  IC50 at 24 h: > 100 µM
[8]; MDA-MB-231 breast cancer cells, MDA-MB-231, 48 h
  IC50 at 48 h: 85.1 ± 1.5 µM
[9]; 24 h, 1.0 µM
  cell viability: 102.7 ± 5.1 % of control
[9]; 24 h, 10.0 µM
  cell viability: 100.2 ± 3.8 % of control
[9]; 24 h, 100.0 µM
  cell viability: 59.6 ±2.1 % of control
[9]; 48 h, 1.0 µM
  cell viability: 97.7 ± 1.4 % of control
[9]; 48 h, 10.0 µM
  cell viability: 93.1 ± 3.6 % of control
[9]; 48 h, 100.0 µM
  cell viability: 78.9 ± 5.7 % of control
HaCaT keratinocytes; 24 h, 1.0 µM
  cell viability: 100.7 ± 3.8 % of control
HaCaT keratinocytes; 24 h, 10.0 µM
  cell viability: 85.6 ± 7.6 % of control
HaCaT keratinocytes; 24 h, 100.0 µM
  cell viability: 64.1 ± 3.2 % of control
HaCaT keratinocytes; 48 h, 1.0 µM
  cell viability: 94.2 ± 8.7 % of control
HaCaT keratinocytes; 48 h, 10.0 µM
  cell viability: 78.1 ± 6.4 % of control
HaCaT keratinocytes; 48 h, 100.0 µM
  cell viability: 40.1 ± 2.9 % of control
[10]; MDA-MB-231, 24 h, 1.0 µM
  cell viability: 102.7 ± 1.6 % of control
[10]; MDA-MB-231, 24 h, 10.0 µM
  cell viability: 75.9 ± 4.8 % of control
[10]; MDA-MB-231, 24 h, 100.0 µM
  cell viability: 53.6 ± 4.2 % of control
[10]; MDA-MB-231, 48 h, 1.0 µM
  cell viability: 99.8 ± 3.7 % of control
[10]; MDA-MB-231, 48 h, 10.0 µM
  cell viability: 82.9 ± 6.3 % of control
[10]; MDA-MB-231, 48 h, 100.0 µM
  cell viability: 43.5 ± 2.5 % of control
[11]; MCF-7, 24 h, 1.0 µM
  cell viability: 99.4 ± 4.4 % of control
[11]; MCF-7, 24 h, 10.0 µM
  cell viability: 65.4 ± 2.9 % of control
[11]; MCF-7, 24 h, 100.0 µM
  cell viability: 56.0 ± 4.5 % of control
[11]; MCF-7, 48 h, 1.0 µM
  cell viability: 91.5 ± 6.3 % of control
[11]; MCF-7, 48 h, 10.0 µM
  cell viability: 70.0 ± 5.2 % of control
[11]; MCF-7, 48 h, 100.0 µM
  cell viability: 43.9 ± 3.5 % of control

Source: PMC12471299, “Secondary Metabolites of the Marine Sponge-Derived Fungus Aspergillus subramanianii 1901NT-1.40.2 and Their Antimicrobial and Anticancer Activities” (Marine Drugs, 2025)
